For 3 molecules, IC50 and Ki results are on record in BindingDB's records for doi:10.1016/j.bmcl.2012.07.091 (University of Copenhagen, 2012).

This assay concerns the target T1, Lysine-specific demethylase 4C (Homo sapiens, UniProt Q9H3R0).
T1 sequence (Q9H3R0 whole entry): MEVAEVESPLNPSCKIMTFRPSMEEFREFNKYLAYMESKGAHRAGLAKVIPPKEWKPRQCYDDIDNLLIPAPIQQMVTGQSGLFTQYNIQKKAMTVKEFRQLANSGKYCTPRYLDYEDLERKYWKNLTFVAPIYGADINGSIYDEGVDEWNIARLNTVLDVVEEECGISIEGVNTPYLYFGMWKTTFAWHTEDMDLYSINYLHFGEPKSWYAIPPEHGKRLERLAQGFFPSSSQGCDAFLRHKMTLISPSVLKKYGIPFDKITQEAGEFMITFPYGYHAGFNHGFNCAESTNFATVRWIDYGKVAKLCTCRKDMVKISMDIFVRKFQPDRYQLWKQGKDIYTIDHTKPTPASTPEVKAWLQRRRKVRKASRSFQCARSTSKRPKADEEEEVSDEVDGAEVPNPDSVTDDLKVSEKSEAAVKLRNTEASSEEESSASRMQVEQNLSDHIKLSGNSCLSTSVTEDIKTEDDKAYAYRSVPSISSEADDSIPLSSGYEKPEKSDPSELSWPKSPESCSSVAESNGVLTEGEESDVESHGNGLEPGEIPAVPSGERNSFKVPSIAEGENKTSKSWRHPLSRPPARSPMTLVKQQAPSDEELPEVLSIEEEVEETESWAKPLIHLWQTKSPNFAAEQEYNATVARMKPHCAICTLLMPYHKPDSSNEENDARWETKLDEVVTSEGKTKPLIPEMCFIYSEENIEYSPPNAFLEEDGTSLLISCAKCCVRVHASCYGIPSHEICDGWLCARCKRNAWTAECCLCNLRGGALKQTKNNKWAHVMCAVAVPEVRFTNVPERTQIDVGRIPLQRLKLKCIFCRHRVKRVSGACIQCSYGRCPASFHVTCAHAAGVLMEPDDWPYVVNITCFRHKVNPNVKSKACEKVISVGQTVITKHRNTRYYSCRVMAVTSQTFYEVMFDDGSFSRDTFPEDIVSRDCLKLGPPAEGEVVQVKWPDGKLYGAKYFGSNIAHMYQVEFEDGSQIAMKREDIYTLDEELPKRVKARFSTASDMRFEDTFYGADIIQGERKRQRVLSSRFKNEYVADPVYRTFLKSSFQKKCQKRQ
Nature of the assay: Inhibition of KDM4C catalytic core-mediated demethylation of ARK(Me)3STGGK after 30 mins by FDH-coupled assay.

In the case of `CNC(=O)c1n[nH]n(C)c1=O`, the IC50 is greater than 200 µM and the inhibition constant Ki is greater than 200 µM.
For the molecule `OCC1C(Cl)N=NN1c1ccccc1` (stereo unspecified), the half-maximal inhibitory concentration (IC50) is greater than 200 µM and the Ki is greater than 200 µM.
`CN1CN(Cc2ccccc2)CC1=S`: the IC50 is greater than 200 µM and the Ki was greater than 200 µM.
